These results are taken from US20240196889A1, “USE OF DI- AND TRI[…] ACIDS IN THE PREVENTION OF BIOFILM FORMATION” (priority 2020, published 2024).

Each structure is given as a SMILES string.

Assay [1] has as its system Salmonella biofilms. Description: Tolerance assay of mature biofilms (H2O2 or ciprofloxacin, CFU). The assay is classed as cell-based. The conditions noted are these: grown 48 h with 100 μM. On the procedure: It is well established that biofilms can be extremely tolerant to treatment with antimicrobials. To test whether the preventive addition of agaric acid renders Salmonella biofilms more susceptible to treatment with common disinfectants or antibiotics, biofilms grown in the presence and absence of agaric acid for 48 hour were treated for 1 h with 0.25% H2O2 or 1 μM ciprofloxacin. Hydrogen peroxide is a commonly used disinfectant in food industry [Meireles et al. (2016) Food Research International 82, 71-85; Meireles et al. (2016) Food Research International 82, 71-85], whereas ciprofloxacin is a fluoroquinolone antibiotic frequently used to treat Salmonella infections [Tabak et al. (2009) FEMS microbiology letters 301, 69-76].
To determine the tolerance of mature biofilms, biofilms were grown on microscopy glasses (75 mm×25 mm) placed vertical in a 50 ml falcon filled with 30 ml TSB 1/20. This set-up allows for easy transfer of mature biofilms as the top of vertical slide sticks out of the medium which allows to grab the slide with a pincer without damaging the biofilm. ONC of Salmonella were normalized to an OD600 of 3.2 and diluted 1/100 into the broth containing either a final concentration of 100 μM agaric or the corresponding amount of DMSO. […] The number of colony forming units (CFU) of biofilms was determined by plating.

The test system of assay [2] is S. Typhimurium ATCC 14028. Put plainly: Microscopic analysis of fluorescently labelled biofilms. The assay is classed as cell-based, Salmonella enterica serovar Typhimurium. The note with it: 100 μM, 48 h. On the procedure:
ONCs of S. Typhimurium ATCC 14028 containing the pFPV25.1 plasmid encoding for constitutive GFPmut3 productions were normalized to an an OD595 of 3.2 and 20 μl was added to a glass bottom microwell dishes (35 mm Ø petri dish, 20 mm Ø microwell) containing 2 ml 1/20 TSB and 100 μg ml^−1 of ampicillin and a final concentration of 100 μM agaric or the corresponding amount of DMSO. Around 12*10^7 ml^−1 cells were inoculated and incubated under static conditions at 25° C. for 48 h. After incubation, the planktonic phase was gently poured off and the biofilm was washed with 1 ml PBS. Biofilms were visualized with […]

With `CCCCCCCCCCCCCCCCC(C(=O)O)C(O)(CC(=O)O)C(=O)O` (stereo not drawn) [Agaric acid, 2-hydroxynonadecane-1,2,3-tricarboxylic acid], the “susceptibility of biofilms to ciprofloxacin” value in assay [1] (then 1 μM ciprofloxacin for 1 h) is recorded as “further increased the effect of a ciprofloxacin treatment, albeit not significantly”. In addition, in assay [1] (then 0.25% H2O2 for 1 h), the “susceptibility of biofilms to H2O2” value was “significantly more susceptible to hydrogen peroxide”. In assay [2], the “biofilm density by microscopy” value is recorded as “less dense compared to the control”.
